pEC50, pIC50: −log10 of the molar value. Activity calls are given as the source filed them. The calls are words filed in the database; no cut-off is given here.
Legend:
[1] = system: Isocitrate dehydrogenase [NADP] cytoplasmic (Homo sapiens), O75874 [R132H]; experiment: Inhibition of recombinant human IDH1 R132H mutant extracted from Escherichia coli BL21 (DE3) cells using alpha-ketoglutarate as substrate at 0.2 uM incubated for 60 mins in presence of NADPH by absorbance based assay relative to control
[2] = system: Isocitrate dehydrogenase [NADP] cytoplasmic (Homo sapiens), O75874 [R132C]; experiment: Inhibition of recombinant human IDH1 R132C mutant extracted from Escherichia coli BL21 (DE3) cells using alpha-ketoglutarate as substrate at 0.2 uM incubated for 60 mins in presence of NADPH by absorbance based assay relative to control
[3] = system: Isocitrate dehydrogenase [NADP] cytoplasmic (Homo sapiens), O75874 [R132H]; experiment: Inhibition of recombinant human IDH1 R132H mutant extracted from Escherichia coli BL21 (DE3) cells using alpha-ketoglutarate as substrate at 2 uM incubated for 60 mins in presence of NADPH by absorbance based assay relative to control
[4] = system: Isocitrate dehydrogenase [NADP] cytoplasmic (Homo sapiens), O75874 [R132C]; experiment: Inhibition of recombinant human IDH1 R132C mutant extracted from Escherichia coli BL21 (DE3) cells using alpha-ketoglutarate as substrate at 2 uM incubated for 60 mins in presence of NADPH by absorbance based assay relative to control
L02 = experiment: Cytotoxicity against human L02 cells assessed as inhibition of cell growth at 50 uM; assay type: toxicity, cell-based; conditions: l02, 50 µM
U-87 MG [5] = experiment: Antiproliferative activity against human U-87 MG cells assessed as reduction in cell viability incubated for 72 hrs by MTT assay; assay type: functional, U-87MG ATCC
U-87 MG [6] = experiment: Antiproliferative activity against human U-87 MG cells harboring IDH1 R132H mutant assessed as reduction in cell viability incubated for 72 hrs by MTT assay; assay type: functional, U-87MG ATCC
HT-1080 [7] = experiment: Antiproliferative activity against human HT-1080 cells harboring IDH1 R132C mutant assessed as reduction in cell viability at 10 uM incubated for 72 hrs by MTT assay; assay type: functional, cell-based
HT-1080 [8] = experiment: Antiproliferative activity against human HT-1080 cells harboring IDH1 R132C mutant assessed as reduction in cell viability incubated for 72 hrs by MTT assay; assay type: functional
[9] = target: T1, Isocitrate dehydrogenase [NADP] cytoplasmic (Homo sapiens, UniProt O75874, R132C); experiment: Inhibition of recombinant human IDH1 R132C mutant extracted from Escherichia coli BL21 (DE3) cells using alpha-ketoglutarate as substrate incubated for 60 mins in presence of NADPH by absorbance based assay
[10] = target: Isocitrate dehydrogenase [NADP] cytoplasmic (Homo sapiens, UniProt O75874); experiment: Inhibition of recombinant human wildtype IDH1 extracted from Escherichia coli BL21 (DE3) cells using alpha-ketoglutarate as substrate incubated for 60 mins in presence of NADPH by absorbance based assay
[11] = target: T1, Isocitrate dehydrogenase [NADP] cytoplasmic; experiment: Inhibition of IDH1 R132C mutant in human HT-1080 cells assessed as reduction in 2-HG level incubated for 48 hrs in presence of NAD+ by resazurin fluorescence dye based Sigma MAK320-1 assay kit analysis; assay type: cell-based
[12] = target: T2, Isocitrate dehydrogenase [NADP] cytoplasmic (Homo sapiens, UniProt O75874, R132H); experiment: Inhibition of IDH1 R132H mutant in human U-87 MG cells assessed as reduction in 2-HG level incubated for 48 hrs in presence of NAD+ by resazurin fluorescence dye based Sigma MAK320-1 assay kit analysis; assay type: cell-based
[13] = target: T2, Isocitrate dehydrogenase [NADP] cytoplasmic; experiment: Inhibition of recombinant human IDH1 R132H mutant extracted from Escherichia coli BL21 (DE3) cells using alpha-ketoglutarate as substrate incubated for 60 mins in presence of NADPH by absorbance based assay
[14] = system: Isocitrate dehydrogenase [NADP] cytoplasmic (Homo sapiens), O75874 [R132H]; experiment: Inhibition of IDH1 R132H mutant in human U-87 MG cells assessed as reduction in 2-HG level at 10 uM incubated for 48 hrs in presence of NAD+ by resazurin fluorescence dye based Sigma MAK320-1 assay kit analysis relative to control; assay type: cell-based
[15] = target: T1, Isocitrate dehydrogenase [NADP] cytoplasmic; experiment: Inhibition of IDH1 R132C mutant (unknown origin)
[16] = target: T2, Isocitrate dehydrogenase [NADP] cytoplasmic; experiment: Inhibition of IDH1 R132H mutant (unknown origin)

T1 sequence (O75874 2-414 R132C limits assumed): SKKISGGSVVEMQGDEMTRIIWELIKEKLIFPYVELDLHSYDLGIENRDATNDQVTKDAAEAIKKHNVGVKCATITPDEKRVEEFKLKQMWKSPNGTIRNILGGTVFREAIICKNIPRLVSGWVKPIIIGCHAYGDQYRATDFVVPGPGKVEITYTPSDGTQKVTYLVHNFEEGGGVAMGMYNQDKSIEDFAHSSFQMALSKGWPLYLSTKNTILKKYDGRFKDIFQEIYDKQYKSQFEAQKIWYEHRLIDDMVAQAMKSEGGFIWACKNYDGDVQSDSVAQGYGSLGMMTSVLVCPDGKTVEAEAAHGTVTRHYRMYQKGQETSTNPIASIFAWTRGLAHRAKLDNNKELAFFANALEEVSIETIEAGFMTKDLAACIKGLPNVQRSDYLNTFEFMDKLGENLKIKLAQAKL
Isocitrate dehydrogenase [NADP] cytoplasmic (Homo sapiens), O75874 [R132C], sequence (O75874 whole entry R132C): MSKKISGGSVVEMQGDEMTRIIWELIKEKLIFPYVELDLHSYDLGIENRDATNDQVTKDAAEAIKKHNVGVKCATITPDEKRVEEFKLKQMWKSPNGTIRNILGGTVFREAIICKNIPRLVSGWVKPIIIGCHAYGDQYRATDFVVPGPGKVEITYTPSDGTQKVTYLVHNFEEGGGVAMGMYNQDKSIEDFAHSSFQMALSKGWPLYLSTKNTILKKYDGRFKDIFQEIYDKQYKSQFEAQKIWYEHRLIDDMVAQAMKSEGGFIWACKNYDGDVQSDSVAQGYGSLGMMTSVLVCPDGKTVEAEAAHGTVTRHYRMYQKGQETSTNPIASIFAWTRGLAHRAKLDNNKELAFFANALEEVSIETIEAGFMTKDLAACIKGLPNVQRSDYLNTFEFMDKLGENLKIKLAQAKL
T2 sequence (O75874 2-414 R132H limits assumed): as the sequence (O75874 2-414 R132C limits assumed) above, with C131H counted along it
Isocitrate dehydrogenase [NADP] cytoplasmic (Homo sapiens), O75874 [R132H], sequence (O75874 whole entry R132H): as the sequence (O75874 whole entry R132C) above, with C132H counted along it
Isocitrate dehydrogenase [NADP] cytoplasmic (Homo sapiens, UniProt O75874), sequence (O75874 whole entry): as the sequence (O75874 whole entry R132C) above, with C132R counted along it

inhibition [1]	inhibition [2]	inhibition [3]	inhibition [4]	Compound	further results
17.2%	24.5%	81.8%	67.3%	COc1cc(O)c(-c2cc(-c3ccc(O)cc3)nc(-c3cnccn3)n2)cc1CC=C(C)C	–
33.4%	11%	91.2%	81.2%	COc1cc(OC)c(-c2cc(-c3ccc(O)cc3)nc(-c3ncccn3)n2)cc1CC=C(C)C	–
11.1%	inactive	61.1%	56.3%	COc1cc(O)c(-c2cc(-c3ccc(O)cc3)nc(-c3nccs3)n2)cc1CC=C(C)C	–
33.1%	22.7%	74%	76.8%	COc1cc(O)c(-c2cc(-c3ccc(O)cc3)nc(-c3ccccn3)n2)cc1CC=C(C)C	Activity (L02): Toxic; GC50 (U-87 MG [5]): >20000 nM; GC50 (U-87 MG [6]): >20000 nM; Activity (HT-1080 [7]): Active; GC50 (HT-1080 [8]): 850 nM
17.7%	20.3%	48.3%	57.9%	COc1cc(O)c(-c2cc(-c3ccc(O)cc3)nc(-c3cccnc3)n2)cc1CC=C(C)C	Activity (L02): Toxic
41.3%	14.6%	> 100%	> 100%	COc1cc(O)c(-c2cc(-c3ccc(O)cc3)nc(-c3ncccn3)n2)cc1CC=C(C)C	–
27%	37.7%	88.5%	96.4%	COc1cc(O)c(-c2cc(-c3ccc(O)cc3)nc(-c3ccccc3)n2)cc1CC=C(C)C	–
73.1%	82%	> 100%	97.5%	COc1ccc(-c2cc(-c3ccc(O)cc3)nc(-c3ncccn3)n2)c(O)c1	Activity (L02): Toxic; GC50 (U-87 MG [5]): >20000 nM; pIC50 [9]: 7.10; GC50 (U-87 MG [6]): 6800 nM; pIC50 [10]: < 4.70; pEC50 [11]: 6.55; pEC50 [12]: 6.58; pIC50 [13]: 7.04
9.7%	28.2%	56.7%	68.1%	COc1cc(O)c(-c2cc(-c3ccc(O)cc3)nc(-c3ccncc3)n2)cc1CC=C(C)C	Activity (L02): Toxic; Activity (HT-1080 [7]): Active; GC50 (HT-1080 [8]): 6000 nM
10.5%	14.9%	95.1%	74.1%	COc1cc(O)c(-c2cc(-c3ccc(O)cc3)nc(-c3ccncc3Cl)n2)cc1CC=C(C)C	–
12.1%	24.7%	87.3%	92.4%	COc1ccc(-c2cc(-c3cc(CC=C(C)C)c(OC)cc3OC)nc(-c3ncccn3)n2)cc1	Activity (L02): Toxic
inactive	10.4%	37.4%	32.5%	COc1cc(O)c(-c2cc(-c3ccc(O)cc3)nc(N3CCN(c4ncccn4)CC3)n2)cc1CC=C(C)C	–

The remaining lines, values behind:

Compound	inhibition [1]	inhibition [2]	inhibition [3]	inhibition [4]	further results
COc1cc(O)c(-c2cc(-c3ccc(O)cc3)nc(N3CCN(C(C)=O)CC3)n2)cc1CC=C(C)C	34.7%	12.8%	61.2%	69.4%	–
COc1cc(O)c(-c2cc(-c3ccc(O)cc3)nc(C3CCCO3)n2)cc1CC=C(C)C (stereo unspecified)	14.7%	13.4%	60.1%	70.4%	–
COc1cc(O)c(-c2cc(-c3ccc(O)cc3)nc(C)n2)cc1CC=C(C)C	13.6%	12.5%	49.1%	67.2%	Activity (L02): Toxic
COc1cc(O)c(-c2cc(-c3ccc(O)cc3)nc(N)n2)cc1CC=C(C)C	11.2%	8.9%	30.7%	47.5%	–
COc1cc(O)c(-c2cc(-c3ccc(O)cc3)ncn2)cc1CC=C(C)C	13.4%	17.8%	47.2%	58.6%	Activity (L02): Toxic
COc1cc(O)c(-c2cc(-c3ccc(O)cc3)nc(N3CCCCC3)n2)cc1CC=C(C)C	9.4%	11.8%	93.6%	89.7%	–
COCOc1ccc(/C=C/C(=O)c2cc(CC=C(C)C)c(OC)cc2O)cc1	inactive	inactive	inactive	inactive	–
CCCCc1nc(-c2ccc(O)cc2)cc(-c2cc(CC=C(C)C)c(OC)cc2O)n1	7.6%	10.3%	51.6%	41.2%	–
COc1cc(O)c(-c2cc(-c3ccc(O)cc3)[nH]n2)cc1CC=C(C)C	inactive	14.2%	17.5%	29.1%	–
COC(=O)N1CCN(c2nc(-c3ccc(O)cc3)cc(-c3cc(CC=C(C)C)c(OC)cc3O)n2)CC1	21.1%	24.6%	75.4%	80.1%	–
COc1cc(O)c(-c2cc(-c3ccc(O)cc3)nc(N3CCOCC3)n2)cc1CC=C(C)C	13.8%	24.1%	82.1%	94.6%	–
COc1cc(OC)c(C(=O)/C=C/c2ccc(O)cc2)cc1CC=C(C)C	inactive	inactive	inactive	inactive	–
CC(Cc1ccc(O)c(O)c1)C(C)Cc1ccc(O)c(O)c1 (stereo unspecified) [NORDIHYDROGUAIARETIC ACID]	–	–	51.2%	–	inhibition [14]: < 10%; pIC50 [10]: < 4.70
COc1cc(O)c(C(=O)/C=C/c2ccc(O)cc2)cc1CC=C(C)C	14.9%	inactive	54%	46.3%	inhibition [14]: 35.8%; pIC50 [10]: < 4.70
COc1c(C)cc(NC(=O)c2nn(Cc3ccc(F)cc3)c3c2CN(C(=O)c2ccc[nH]2)C[C@]3(C)C(N)=O)cc1C	–	–	–	–	pIC50 [15]: 8.06; pIC50 [16]: 7.82
COc1cc(O)c(-c2cc(-c3ccc(O)cc3)nc(C(C)(C)C)n2)cc1CC=C(C)C	13.5%	14.7%	60.4%	53.1%	–
COCOc1ccc(/C=C/C(=O)c2cc(CC=C(C)C)c(OC)cc2OC)cc1	inactive	inactive	inactive	inactive	–
COc1cc(O)c(-c2cc(-c3ccc(O)cc3)nc(N3CCCC3)n2)cc1CC=C(C)C	5%	30.9%	70.2%	84.3%	–
O=C(/C=C/c1ccc(O)cc1)OC[C@H]1O[C@@H](Oc2c(-c3ccc(O)cc3)oc3cc(O)cc(O)c3c2=O)[C@H](O)[C@@H](O)[C@@H]1O [TILIROSIDE]	–	–	58.1%	–	inhibition [14]: < 10%; pIC50 [10]: < 4.70
COc1cc(O)c(-c2cc(-c3ccc(O)cc3)nc(-c3nn(Cc4ccccc4F)c4ncccc34)n2)cc1CC=C(C)C	30.5%	40.1%	89.4%	81.9%	–
